# According to ChEMBL document CHEMBL3832052:
# Assay: clinical
# Details: human, in vivo, po
compound,measurement,value
Cc1cc(NS(=O)(=O)c2ccc(N)cc2)no1 [SULFAMETHOXAZOLE],Tmax,1 to 4 h
